SMILES strings stand for the structures. “And” between values parts separate entries of the source, which are not always exact repeats. Equal values may be shown once.

Results on eleven compounds are retold here after US11518823B2, “Photoinitiators for light-curable compositions” (priority 2017, dated 2022).

A short description of data set [1]: photo-DSC monitoring of photopolymerization in hexanediol diacrylate. On the procedure:
(§1) In the following examples, of the inventive use of compounds of formula (I) as photo-initiators, reaction mixtures containing the respective photoinitiator, the specified liquid monomer and optionally a specified co-intiator were produced and cured for 10 min under a nitrogen atmosphere by exposure to an OmniCure® S2000 mercury lamp having a wave length filter of 320 to 500 nm and an UV light intensity of 1 W/cm^2, while the progress of the reactions was monitored by photo-DSC type NETSCH DSC 204 F1 Phoenix.
(§2) All measurements were carried out at least twice, the respective tables showing the average values for the respective initiators.
(§3) In the tables, RP represents the polymerization rate and is thus an indicator of the reactivity of a system. A high value means that many monomer groups are reacted at the same time and that the curing process is generally shorter. tmax is the time (in s) it takes until maximum heat development is reached and is thus an indicator of how long it takes to reach the gelling point and thus a certain initial solidity. Short times are thus more desirable. t95% is the time (in s) after which 95% of the entire reaction heat have been released and is thus an indicator of the rate at which a reaction occurs, lower values again being advantageous. DBC is the double bond conversion rate calculated based on the reaction heat released during polymerization (in J per g) of the respective formulation. For the conversion rate, it is desirable to achieve values that are as high as possible.
(§4) In all formulations, the respective photoinitiator was used in an equimolar amount with respect to 1 wt % of ethyl pyruvate (1), which was the initiator having the lowest molecular weight, and weighed in accordingly, and co-initiators, if contained, were weighed in equimolar amounts with respect to the respective initiator. Subsequently, 12±0.5 mg of the reaction mixtures were weighed into DSC aluminum pans, and the pans were covered with cover glasses.

Data set [2] is described as follows: photo-DSC monitoring of photopolymerization in dental dimethacrylate mixture. The protocol: All measurements were carried out at least twice, the respective tables showing the average values for the respective initiators. In the tables, RP represents the polymerization rate and is thus an indicator of the reactivity of a system. A high value means that many monomer groups are reacted at the same time and that the curing process is generally shorter. tmax is the time (in s) it takes until maximum heat development is reached and is thus an indicator of how long it takes to reach the gelling point and thus a certain initial solidity. Short times are thus more desirable. t95% is the time (in s) after which 95% of the entire reaction heat have been released and is thus an indicator of the rate at which a reaction occurs, lower values again being advantageous. DBC is the double bond conversion rate calculated based on the reaction heat released during polymerization (in J per g) of the respective formulation. For the conversion rate, it is desirable to achieve values that are as high as possible. In all formulations, the respective photoinitiator was used in an equimolar amount with respect to 1 wt % of ethyl pyruvate (1), which was the initiator having the lowest molecular weight, and weighed in accordingly, and co-initiators, if contained, were weighed in equimolar amounts with respect to the respective initiator. […] In this group of experiments, the experiments from Examples 1 to 4 and Comparative Example 1 were repeated, using a di-methacrylate mixture from the field of dental engineering as a monomer instead of the diacrylate that had been used above.

The nature of data set [3]: longwave absorption maximum. In kind it is physicochemical. An excerpt:
(§5) PBQ was used as a commercially available reference initiator, with MDEA as a co-initiator. The ketoesters ethyl pyruvate (1) and dimethylfurandione (8) can be used as novel initiators without any co-initiator. Due to its longwave absorption maximum (λmax=378 nm instead of 330 nm for compound (1)), compound (8) can also be used using visible light which is harmless for cells.

Data set [4] is described as follows: photo-DSC of hydrogel formulation with PEG700DA and 50 wt % water. To be noted: without co-initiator. The protocol: as §1, §2, §3, §4, §5
The nature of data set [5]: photo-DSC monitoring of photopolymerization in divinyl adipate. The settings on record: monomer DVA, co-initiator DMAB. On the procedure:
In the following examples, of the inventive use of compounds of formula (I) as photo-initiators, reaction mixtures containing the respective photoinitiator, the specified liquid monomer and optionally a specified co-intiator were produced and cured for 10 min under a nitrogen atmosphere by exposure to an OmniCure® S2000 mercury lamp having a wave length filter of 320 to 500 nm and an UV light intensity of 1 W/cm^2, while the progress of the reactions was monitored by photo-DSC type […]1 Phoenix. All measurements were carried out at least twice, the respective tables showing the average values for the respective initiators. In the tables, RP represents the polymerization rate and is thus an indicator of the reactivity of a system. A high value means that many monomer groups are reacted at the same time and that the curing process is generally shorter. tmax is the time (in s) it takes until maximum heat development is reached and is thus an indicator of how long it takes to reach the gelling point and thus a certain initial solidity. Short times are thus more desirable. t95% is the time (in s) after which 95% of the entire reaction heat have been released and is thus an indicator of the rate at which a reaction occurs, lower values again being advantageous. DBC is the double bond conversion rate calculated based on the reaction heat released during polymerization (in J per g) of the respective formulation. For the conversion rate, it is desirable to achieve values that are as high as possible. In all formulations, the respective photoinitiator was used in an equimolar amount with respect to 1 wt % of ethyl pyruvate (1), which was the initiator having the lowest molecular weight, and weighed in accordingly, and co-initiators, if contained, were weighed in equimolar amounts with respect to the respective initiator. Subsequently, 12±0.5 mg of the reaction mixtures were weighed into DSC aluminum pans, and the pans were covered with cover glasses.

[6] abbreviates: monomer HDDA, type I initiators, without any co-initiators (Table 5).
[7] abbreviates: monomer HDDA, type I, without any co-initiators.
Where [8] appears, read: monomer HDDA, co-initiator DMAB.
Setting [9] is: monomer HDDA, co-initiator MDEA.
The mark [10] stands for this setting: monomer HDDA, no co-initiator listed (Table 3).
Setting [11] is: monomer DDM, co-initiator DMAB (Table 7).
The mark [12] stands for this setting: HDDA, without any co-initiator (Table 10).
Setting [13] is: methacrylates, co-initiator DMAB (Table 10).
Where [14] appears, read: monomer HDDA, co-initiator shown only as drawing (Table 11).
The mark [15] stands for this setting: monomer HDDA, co-initiator shown only as drawing, reference is benzophenone/amine system (Table 11).
Setting [16] is: dental formulation DDM, co-initiator DMAB (Table 12).
Setting [17] is: monomer HDDA, co-initiator thiol.
The mark [18] stands for this setting: acrylate (HDDA), co-initiator (Table 10, C8).
[19] abbreviates: monomer HDDA, co-initiator shown only as drawing (Table 13).

With `CCOC(=O)C(=O)C(C)(C)Br` [Compound 5, 3-bromo-3-methyl-2-oxobutanoic Acid Ethyl Ester], the “RP (polymerization rate)” value in data set [1] (setting [6]) turned out to be 239 mmol/L/s. In data set [1] (setting [7]), this compound came in with a DBC of 62.1% and a t95% of 40.0 s.
`COC(=O)C(=O)C(C)(C)C` [Compound 4, 2-oxo-3,3-dimethylbutanoic Acid Methyl Ester]: in data set [1] (setting [8]), the “DBC (double bond conversion)” value turned out to be 59.1%, the “RP (polymerization rate)” value came out at 170 mmol/L/s and the “t95% (time after which 95% of reaction heat released)” value is recorded as 42.5 s. Moreover, in data set [1] (setting [9]), the DBC stood at 64.6%, the “RP (polymerization rate)” value turned out to be 234 mmol/L/s and the t95% came to 41.0 s. In addition, in data set [1] (setting [10]), the DBC stood at 64.6%, the “RP (polymerization rate)” value stood at 214 mmol/L/s and the t95% was determined as 53.5 s. Also, in data set [2] (setting [11]), the DBC was determined as 51%, the “RP (polymerization rate)” value was found to be 55.9 mmol/L/s and the t95% came to 69.5 s.
For the compound `CC1(C)COC(=O)C1=O` [Compound 8, 4,4-dimethyldihydrofuran-2,3-dione], in data set [1] (setting [12]), the DBC worked out at 66%, the “RP (polymerization rate)” value is 189 mmol/L/s and the t95% is 58 s. In addition, the “longwave absorption maximum λmax” value in data set [3] turned out to be 378 nm. For the same compound, in data set [2] (setting [13]), the DBC was 54%, the “RP (polymerization rate)” value stood at 52 mmol/L/s and the t95% was found to be 90 s. In addition, in data set [4], the DBC was found to be 56%, the “RP (polymerization rate)” value was found to be 26 mmol/L/s and the t95% is 78 s.
On to `CCOC(=O)CCC(=O)C(=O)OCC` [Compound 9, α-Ketoglutaric Acid Diethyl Ester], for which, in data set [1] (setting [14]), the DBC worked out at 67% and the t95% came out at 58 s. In data set [1] (setting [15]), the “RP (polymerization rate)” value turned out to be 201 mmol/L/s. In data set [2] (setting [16]), the DBC came to 53%, the “RP (polymerization rate)” value is 66 mmol/L/s and the t95% is 85 s.
Regarding `CCOC(=O)C(=O)c1ccccc1` [PGO, Ethyl Phenylglyoxylate, reference compound], in data set [1] (setting [10]), the DBC is on record as 75.1%, the “RP (polymerization rate)” value came to 204 mmol/L/s and the t95% is 63.0 s.
`CCOC(=O)C(=O)C(C)C` [Compound 3, 2-oxo-3-Methylbutanoic Acid Ethyl Ester]: in data set [1] (setting [8]), the “DBC (double bond conversion)” value turned out to be 65.8%. The “t95% (time after which 95% of reaction heat released)” value in data set [1] (setting [8]) came to 36.6 s. The “RP (polymerization rate)” value in data set [1] (monomer HDDA, co-initiator DMAB, listed as E3) is 241 mmol/L/s and 241.0 mmol/L/s; in data set [1] (setting [9]), 228 mmol/L/s; in data set [1] (monomer HDDA, co-initiator pentaerythritol-tetrakis(3-mercaptopropionate) (thiol)) it was 233.5 mmol/L/s; in data set [2] (setting [11]), 81.5 mmol/L/s. Besides, the DBC in data set [1] (setting [9]) stood at 65.2%; in data set [1] (setting [17]) it was 68.0%; in data set [2] (setting [11]) it was 57%. The t95% was 56.5 s in data set [1] (setting [9]), 45.0 s in data set [1] (setting [17]) and 58.5 s in data set [2] (setting [11]).
`CC(C)(Br)C(=O)c1ccccc1` [BD, 2-bromo-2-methyl-1-phenylpropan-1-one, reference compound]: in data set [1] (setting [6]), the “RP (polymerization rate)” value was determined as 146 mmol/L/s. In data set [1] (setting [7]), this compound showed a DBC of 57.6% and a t95% of 62.5 s.
`O=C(c1ccccc1)c1ccccc1` [BP, Benzophenone, reference compound]: the DBC is listed as 69% in data set [1] (setting [18]); 69.3% in data set [1] (setting [9]); 69% in data set [1] (setting [14]); 69% in data set [1] (setting [19]); 49% in data set [2] (setting [16]); 49% in data set [2] (setting [13]). Moreover, in data set [2] (setting [11]), the DBC is listed as 50%. Further, the “RP (polymerization rate)” value stood at 93 mmol/L/s in data set [1] (setting [18]); 96 mmol/L/s in data set [1] (setting [8]); 109 mmol/L/s in data set [1] (setting [9]); 93 mmol/L/s in data set [1] (setting [19]); 93 mmol/L/s in data set [1] (setting [15]); 21 mmol/L/s in data set [2] (setting [16]). Besides, the “RP (polymerization rate)” value is 21 mmol/L/s in data set [2] (setting [13]) and 21.4 mmol/L/s in data set [2] (setting [11]). The t95% in data set [1] (setting [18]) is given as 69 s; in data set [1] (setting [9]), 77.0 s; in data set [1] (setting [14]) it was 69 s; in data set [1] (setting [19]), 69 s; in data set [2] (setting [16]), 143 s; in data set [2] (setting [13]), 143 s. Further, the t95% in data set [2] (setting [11]) turned out to be 146.5 s. In addition, the “DBC (double bond conversion)” value in data set [1] (setting [8]) is listed as 68.9%. In data set [1] (setting [8]), the “t95% (time after which 95% of reaction heat released)” value came to 85.5 s. For the same compound, in data set [5], the Area amounted to 642 J/g. The DSC in data set [5] worked out at 4.37 mW · mg^−1.
In data set [1] (setting [14]), `C=C(C)C(=O)OCCOC(=O)CCC(=O)C(=O)OCCOC(=O)C(=C)C` [Compound 11, α-Ketoglutaric Acid di(hydroxyethylmethacrylate) Ester] came in with a DBC of 64% and a t95% of 53 s. Besides, the “RP (polymerization rate)” value in data set [1] (setting [15]) stood at 203 mmol/L/s. In addition, in data set [2] (setting [16]), the DBC was found to be 52%, the “RP (polymerization rate)” value came out at 57 mmol/L/s and the t95% is recorded as 93 s.
Turning to `CCOC(=O)C(=O)C(C)(C)O` [Compound E5], in data set [1] (setting [8]), the “DBC (double bond conversion)” value is reported as 63.1%, the “RP (polymerization rate)” value is 218 mmol/L/s and the “t95% (time after which 95% of reaction heat released)” value was determined as 73.0 s.
For the compound `CCC(=O)C(=O)OC` [Compound 2, 2-oxobutanoic Acid Methyl Ester], in data set [1] (setting [8]), the “DBC (double bond conversion)” value stood at 60.9%, the “RP (polymerization rate)” value turned out to be 204 mmol/L/s and the “t95% (time after which 95% of reaction heat released)” value was 40.5 s. Also, in data set [2] (setting [11]), the DBC came out at 57%, the “RP (polymerization rate)” value came out at 71.2 mmol/L/s and the t95% came out at 85.5 s.
